Test results taken from PubChem BioAssay AID328 (DTP/NCI, 2004).
“And” between values parts separate entries of the source, which are not always exact repeats. Equal entries are not always repeated. Toxic doses and inconclusive results are not listed.

Test system: BDF1 mice, P388 leukemia ip, median survival T/C
Assay: NCI In Vivo Anticancer Drug Screen. Data for tumor model P388 Leukemia (intraperitoneal) in B6D2F1 (BDF1) mice
Conditions: endpoint: median survival time, higher = longer survival
How it was run: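 Read-out is survival of treated animals expressed relative to the vehicle group, as a T/C ratio.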

## COC1C(O)CC(OC2CC(Oc3cc4cc5c(c(O)c4c(O)c3C)C(=O)[C@@H](OC3CC(OC4CC(OC6CC(C)(O)C(OC(C)=O)C(C)O6)C(O)C(C)O4)C(O)C(C)O3)[C@H]([C@H](OC)C(=O)[C@@H](O)[C@@H](C)O)C5)OC(C)C2OC(C)=O)OC1C (stereo not given in full)
dose: 0.02 mg/kg/injection, schedule: Q01DX005 (ip), vehicle: saline
  T/C: 166 % of control
dose: 0.03 mg/kg/injection, schedule: Q01DX001 (ip), vehicle: saline
  T/C: 109 % of control
dose: 0.03 mg/kg/injection, schedule: Q01DX005 (ip), vehicle: saline
  T/C: 168 % of control
dose: 0.03 mg/kg/injection, schedule: Q01DX009 (ip), vehicle: saline
  T/C: 150 % of control
dose: 0.05 mg/kg/injection, schedule: Q01DX005 (ip), vehicle: clinical formulation
  T/C: 183 % of control
dose: 0.05 mg/kg/injection, schedule: Q01DX005 (ip), vehicle: saline
  T/C: 166 % of control and 183 % of control and 187 % of control
dose: 0.06 mg/kg/injection, schedule: Q01DX005 (ip), vehicle: saline
  T/C: 172 % of control
dose: 0.06 mg/kg/injection, schedule: Q01DX009 (ip), vehicle: saline
  T/C: 172 % of control
dose: 0.1 mg/kg/injection, schedule: Q01DX005 (ip), vehicle: clinical formulation
  T/C: 200 % of control
dose: 0.1 mg/kg/injection, schedule: Q01DX005 (ip), vehicle: saline
  T/C: 187 % of control (2×) and 193 % of control
dose: 0.13 mg/kg/injection, schedule: Q01DX001 (oral), vehicle: saline
  T/C: 100 % of control
dose: 0.13 mg/kg/injection, schedule: Q01DX001 (sc), vehicle: Klucel (hydroxypropylcellulose) (HPC)
  T/C: 100 % of control
dose: 0.13 mg/kg/injection, schedule: Q01DX005 (ip), vehicle: saline
  T/C: 177 % of control
dose: 0.13 mg/kg/injection, schedule: Q01DX009 (ip), vehicle: saline
  T/C: 172 % of control
dose: 0.13 mg/kg/injection, schedule: Q01DX010 (oral), vehicle: saline
  T/C: 100 % of control
dose: 0.13 mg/kg/injection, schedule: Q01DX010 (sc), vehicle: Klucel (hydroxypropylcellulose) (HPC)
  T/C: 109 % of control
dose: 0.15 mg/kg/injection, schedule: Q01DX005 (ip), vehicle: clinical formulation
  T/C: 225 % of control
dose: 0.15 mg/kg/injection, schedule: Q01DX005 (ip), vehicle: saline
  T/C: 204 % of control
dose: 0.2 mg/kg/injection, schedule: Q01DX005 (ip), vehicle: clinical formulation
  T/C: 170 % of control
dose: 0.2 mg/kg/injection, schedule: Q01DX005 (ip), vehicle: saline
  T/C: 254 % of control and 260 % of control and 158 % of control
dose: 0.25 mg/kg/injection, schedule: Q01DX001 (sc), vehicle: Klucel (hydroxypropylcellulose) (HPC)
  T/C: 100 % of control
dose: 0.25 mg/kg/injection, schedule: Q01DX009 (ip), vehicle: saline
  T/C: 95 % of control
dose: 0.25 mg/kg/injection, schedule: Q01DX010 (sc), vehicle: Klucel (hydroxypropylcellulose) (HPC)
  T/C: 95 % of control
dose: 0.25 mg/kg/injection, schedule: Q04DX003 (ip), vehicle: saline
  T/C: 200 % of control
dose: 0.4 mg/kg/injection, schedule: Q01DX001 (ip), vehicle: saline
  T/C: 150 % of control
dose: 0.5 mg/kg/injection, schedule: Q01DX001 (ip), vehicle: other
  T/C: 175 % of control
dose: 0.5 mg/kg/injection, schedule: Q01DX001 (oral), vehicle: saline
  T/C: 95 % of control
dose: 0.5 mg/kg/injection, schedule: Q01DX001 (sc), vehicle: Klucel (hydroxypropylcellulose) (HPC)
  T/C: 109 % of control
dose: 0.5 mg/kg/injection, schedule: Q01DX010 (oral), vehicle: saline
  T/C: 109 % of control
dose: 0.5 mg/kg/injection, schedule: Q04DX003 (ip), vehicle: saline
  T/C: 100 % of control
dose: 0.8 mg/kg/injection, schedule: Q01DX001 (ip), vehicle: saline
  T/C: 170 % of control
dose: 1.0 mg/kg/injection, schedule: Q01DX010 (oral), vehicle: saline
  T/C: 100 % of control
dose: 1.6 mg/kg/injection, schedule: Q01DX001 (ip), vehicle: saline
  T/C: 162 % of control
dose: 2.0 mg/kg/injection, schedule: Q01DX001 (oral), vehicle: saline
  T/C: 109 % of control
dose: 2.0 mg/kg/injection, schedule: Q01DX010 (oral), vehicle: saline
  T/C: 100 % of control
dose: 0.9 micrograms/kg/injection, schedule: Q01DX010 (ip), vehicle: saline
  T/C: 90 % of control
dose: 1.9 micrograms/kg/injection, schedule: Q01DX010 (ip), vehicle: saline
  T/C: 86 % of control
dose: 3.8 micrograms/kg/injection, schedule: Q01DX010 (ip), vehicle: saline
  T/C: 100 % of control
dose: 3.8 micrograms/kg/injection, schedule: Q03HX024 (ip), vehicle: saline
  T/C: 177 % of control
dose: 8.0 micrograms/kg/injection, schedule: Q01DX010 (ip), vehicle: saline
  T/C: 150 % of control
dose: 16.0 micrograms/kg/injection, schedule: Q01DX010 (ip), vehicle: saline
  T/C: 160 % of control
dose: 32.0 micrograms/kg/injection, schedule: Q01DX010 (ip), vehicle: saline
  T/C: 180 % of control and 195 % of control
dose: 60.0 micrograms/kg/injection, schedule: Q01DX010 (ip), vehicle: saline
  T/C: 154 % of control
dose: 62.0 micrograms/kg/injection, schedule: Q01DX009 (ip), vehicle: other
  T/C: 150 % of control
dose: 63.0 micrograms/kg/injection, schedule: Q01DX010 (ip), vehicle: saline
  T/C: 163 % of control and 185 % of control and 210 % of control
dose: 125.0 micrograms/kg/injection, schedule: Q01DX001 (ip), vehicle: clinical formulation
  T/C: 154 % of control and 168 % of control and 181 % of control
dose: 125.0 micrograms/kg/injection, schedule: Q01DX001 (ip), vehicle: water
  T/C: 213 % of control
dose: 125.0 micrograms/kg/injection, schedule: Q01DX009 (ip), vehicle: other
  T/C: 166 % of control
dose: 125.0 micrograms/kg/injection, schedule: Q01DX010 (ip), vehicle: saline
  T/C: 300 % of control and 209 % of control
dose: 200.0 micrograms/kg/injection, schedule: Q01DX009 (ip), vehicle: saline
  T/C: 100 % of control
dose: 250.0 micrograms/kg/injection, schedule: Q01DX001 (ip), vehicle: clinical formulation
  T/C: 186 % of control and 195 % of control and 200 % of control
dose: 250.0 micrograms/kg/injection, schedule: Q01DX001 (ip), vehicle: water
  T/C: 250 % of control
dose: 500.0 micrograms/kg/injection, schedule: Q01DX001 (ip), vehicle: clinical formulation
  T/C: 236 % of control and 190 % of control and 213 % of control
dose: 1000.0 micrograms/kg/injection, schedule: Q01DX001 (ip), vehicle: clinical formulation
  T/C: 231 % of control
dose: 2000.0 micrograms/kg/injection, schedule: Q01DX001 (ip), vehicle: clinical formulation
  T/C: 100 % of control
